Test [1] relates to Bloodstream T. brucei CA427. Nature of the test: Bloodstream T. brucei cell culture drug susceptibility (Example 4). Format: cell-based, Trypanosoma brucei. As to conditions: cultured bloodstream T. brucei. As to the method: Cell Culture. Bloodstream T. brucei cell culture and drug susceptibility studies were performed as previously described. Bloodstream T. brucei CA427 were cultured in HMI-9 media (Hirumi and Hirumi, 1994, Parasitol Today; 10(2):80-4) to a density of 10^6 cells/ml. Cells were seeded (500 μl of 4×10^4 cells/ml) to a 24-well plate and exposed to MAL3-101, CAM741, and NFI028 at listed concentrations (see figure legends) or an equal volume of DMSO. Cells were incubated at 37° C. and counted after 24 and 48 hours, using a hemocytometer.

The subject of test [2] is T. brucei microsomes (TbRM). Nature of the test: Post-translational import of VSG-11786 into TbRM with inhibitors (Example 4). The format is biochemical, Trypanosoma brucei. As to conditions: 10 μM. As to the method: FIGS. 7A to 7C. […] VSG-11786 mRNA was translated in rabbit reticulocyte lysate in the absence or presence of T. brucei cytosol for 1 hour at 37° C., and then cycloheximide was added to stop protein synthesis. TbRM (1 equivalent) and MAL3-101 (10 μM), MAL3-51 (10 μM), or an equal volume of DMSO was added to the samples on ice, and the mixture was incubated at 37° C. for 1.5 hours for translocation of VSG-11786 into the microsomes. Reaction mixtures were treated with proteinase K (PK) for one hour on ice. Proteolysis was terminated with PMSF. Proteins were precipitated with ammonium sulfate, pelleted by centrifugation, resuspended in SDS-PAGE sample buffer, and resolved by Tris-Tricine SDS-PAGE. Gel images were obtained with a phosphorimager and analyzed with Quantity-One software. Reaction mixtures for odd numbered lanes contained TbRM, but not proteinase K; even numbered lanes contained TbRM and proteinase K. Brackets denote lanes that were compared to obtain percentage of VSG-11786 import values. FIG. 7B is a graphical representation of data from FIG. 7A. […] In FIG. 7C, the effect of MAL3-101 on T. brucei growth.
FIGS. 8A to 8D. Effects of NFI028 and CAM741 on import of VSG-11786 into T. brucei microsomes. […] VSG-11786 mRNA was translated in rabbit reticulocyte lysate in the presence of T. brucei cytosol for one hour at 37° C., and then protein synthesis was stopped by the addition of cycloheximide. […] Reaction mixtures were treated with proteinase K (PK) on ice for one hour. Proteolysis was terminated with PMSF. Proteins were precipitated with ammonium sulfate, pelleted, resuspended in SDS-PAGE sample buffer, and resolved by Tris-Tricine SDS-PAGE. Images of radiolabeled proteins were obtained with a phosphorimager and quantitated with Quantity-One software. Samples depicted in odd numbered lanes contained TbRM, but were not treated proteinase K. Reaction mixtures shown in even numbered lanes contained TbRM and were treated with proteinase K. Brackets denote lanes that were compared to each other in order to obtain percentage of VSG-11786 import values. FIG. 8B is a graphical representation of data from FIG. 8A.
FIGS. 9A to 9D. Effects of azide, AEE788, and valinomycin on VSG-11786 import into T. brucei microsomes. […] VSG-11786 mRNA was translated in rabbit reticulocyte lysate in the presence of T. brucei cytosol for one hour at 37° C. Cycloheximide was added to stop proteins synthesis. TbRM (1 equivalent) and sodium azide (8 μM), AEE788 (8 μM), an equal volume of microsome buffer (RMB) or DMSO was added to the samples on ice, and the mixtures were incubated at 37 C for 1.5 hours. Reaction mixtures were treated with proteinase K (PK) on ice for one hour. Proteolysis was terminated with PMSF. Proteins were precipitated with ammonium sulfate, pelleted, resuspended in SDS-PAGE sample buffer, and resolved by Tris-Tricine SDS-PAGE. Images of radiolabeled proteins were obtained with a phosphorimager and quantitated with Quantity-One software. Brackets show lanes that were compared to each other in order to obtain percentage of VSG-11786 imported into TbRM. Lanes 1, 3, 5, & 7 were treated with TbRM, but not proteinase K. Lanes 2, 4, 6, & 8 were treated with TbRM and proteinase K. FIG. 9B is a graphical representation of data from FIG. 9A. […] Reaction mixtures depicted in odd lanes contained TbRM, but were not treated with proteinase K; even lanes contained TbRM and were treated with proteinase K. FIG. 9D is a graphical representation of data from panel FIG. 9C.

As for `CCCCCCN(C(=O)CCCCCN1C(=O)NC(c2ccc(-c3ccccc3)cc2)C(C(=O)OCc2ccccc2)=C1C)C(C(=O)NCCCC)c1ccc(OCC(=O)OC)c(C(=O)OC)c1` (stereo not shown) [MAL3-101], the “concentration killing all parasites” value in test [1] was 3 µM. Also, the IC50 in test [1] (read-out: IG50, T. brucei growth) was 1.5 µM. In test [2] (absence of T. brucei cytosol), the “reduction of VSG-11786 import into TbRM compared to DMSO control” value is on record as 54%. Further, the “VSG-11786 imported into TbRM” value in test [2] (presence of T. brucei cytosol) was determined as 90%.

The values are drawn from US8246966B2, “Trypanosome microsome system and uses thereof” (priority 2006, dated 2012).
